Measurements taken from US10131652B2, “Pyrimidinyloxy benzene derivatives as herbicides” (E. I. DU PONT DE NEMOURS AND COMPANY, priority 2014, dated 2018).
Like-named read-outs stand apart in the source and are kept apart here.

What was measured:
Experiment in all cases: Test E pre-/postemergence plant response
Type in all cases: in vivo
[1] = test system: winter barley (Hordeum vulgare); conditions: scale 0 to 100, read-out: Plant response rating, Barley, Winter; for plant injury at 16 g/ha: 16 g ai/ha; for plant injury at 31 g/ha: 31 g ai/ha; for plant injury at 62 g/ha: 62 g ai/ha; for plant injury at 125 g/ha: 125 g ai/ha
How it was run: (§1)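 Visual scores on a 0–100 scale (100 = complete control) were assigned against untreated controls 7–21 days after treatment in a controlled environment. Compounds, formulated with solvent plus surfactant, were applied to pre-emergence silt-loam sowings or to 1- to 4-leaf plants (2–18 cm) in potting medium.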

[2] = test system: spring wheat (Triticum aestivum); conditions: scale 0 to 100, read-out: Plant response rating, Wheat, Spring; for plant injury at 16 g/ha: 16 g ai/ha; for plant injury at 62 g/ha: 62 g ai/ha; for plant injury at 125 g/ha: 125 g ai/ha
How it was run: as §1

[3] = test system: chamomile (scentless chamomile, Matricaria inodora); conditions: Tripleurospermum inodorum, scale 0 to 100, read-out: Plant response rating, Chamomile; for pest or weed control at 16 g/ha: 16 g ai/ha; for pest or weed control at 31 g/ha: 31 g ai/ha; for pest or weed control at 62 g/ha: 62 g ai/ha; for pest or weed control at 125 g/ha: 125 g ai/ha
How it was run: as §1

[4] = test system: canarygrass (Phalaris minor); conditions: scale 0 to 100, read-out: Plant response rating, Canarygrass; for pest or weed control at 16 g/ha: 16 g ai/ha; for pest or weed control at 31 g/ha: 31 g ai/ha; for pest or weed control at 62 g/ha: 62 g ai/ha; for pest or weed control at 125 g/ha: 125 g ai/ha
How it was run: as §1

[5] = test system: wild oat (Avena fatua); conditions: scale 0 to 100, read-out: Plant response rating, Oat, Wild; for pest or weed control at 16 g/ha: 16 g ai/ha; for pest or weed control at 31 g/ha: 31 g ai/ha; for pest or weed control at 62 g/ha: 62 g ai/ha; for pest or weed control at 125 g/ha: 125 g ai/ha
How it was run: as §1

[6] = test system: windgrass (Apera spica-venti); conditions: scale 0 to 100, read-out: Plant response rating, Windgrass; for pest or weed control at 16 g/ha: 16 g ai/ha; for pest or weed control at 62 g/ha: 62 g ai/ha; for pest or weed control at 125 g/ha: 125 g ai/ha
How it was run: as §1

[7] = test system: wild buckwheat (Polygonum convolvulus); conditions: Fallopia convolvulus, scale 0 to 100, read-out: Plant response rating, Buckwheat, Wild; for pest or weed control at 16 g/ha: 16 g ai/ha; for pest or weed control at 31 g/ha: 31 g ai/ha; for pest or weed control at 62 g/ha: 62 g ai/ha; for pest or weed control at 125 g/ha: 125 g ai/ha
How it was run: as §1

[8] = test system: downy bromegrass (Bromus tectorum); conditions: scale 0 to 100, read-out: Plant response rating, Bromegrass, Downy; for pest or weed control at 16 g/ha: 16 g ai/ha; for pest or weed control at 31 g/ha: 31 g ai/ha; for pest or weed control at 62 g/ha: 62 g ai/ha; for pest or weed control at 125 g/ha: 125 g ai/ha
How it was run: as §1

[9] = test system: oilseed rape (Brassica napus); conditions: scale 0 to 100, read-out: Plant response rating, Oilseed Rape; for plant injury at 16 g/ha: 16 g ai/ha; for plant injury at 31 g/ha: 31 g ai/ha; for plant injury at 62 g/ha: 62 g ai/ha; for plant injury at 125 g/ha: 125 g ai/ha
How it was run: as §1

[10] = test system: field poppy (Papaver rhoeas); conditions: scale 0 to 100, read-out: Plant response rating, Field Poppy; for pest or weed control at 16 g/ha: 16 g ai/ha; for pest or weed control at 31 g/ha: 31 g ai/ha; for pest or weed control at 62 g/ha: 62 g ai/ha; for pest or weed control at 125 g/ha: 125 g ai/ha
How it was run: as §1

[11] = test system: deadnettle (henbit deadnettle, Lamium amplexicaule); conditions: scale 0 to 100, read-out: Plant response rating, Deadnettle; for pest or weed control at 16 g/ha: 16 g ai/ha; for pest or weed control at 31 g/ha: 31 g ai/ha; for pest or weed control at 62 g/ha: 62 g ai/ha; for pest or weed control at 125 g/ha: 125 g ai/ha
How it was run: as §1

[12] = post-emergence, 31 g ai/ha, Postemergence

SMILES: Fc1cccc(Oc2ncc(Br)cn2)c1-c1cc(C(F)F)no1 [Compound 145, 5-bromo-2-[2-[3-(difluoromethyl)-5-isoxazolyl]-3-fluorophenoxy]pyrimidine]
- plant injury at 16 g/ha ([1]; post-emergence, Postemergence): 15%
- plant injury at 31 g/ha ([1]; post-emergence, Postemergence): 15%
- plant injury at 62 g/ha ([1]; post-emergence, Postemergence): 30%
- plant injury at 125 g/ha ([1]; post-emergence, Postemergence): 40%
- plant injury at 16 g/ha ([1]; pre-emergence, Preemergence): 10%
- plant injury at 31 g/ha ([1]; pre-emergence, Preemergence): 15%
- plant injury at 62 g/ha ([1]; pre-emergence, Preemergence): 30%
- plant injury at 125 g/ha ([1]; pre-emergence, Preemergence): 85%
- plant injury at 16 g/ha ([2]; post-emergence, Postemergence): 30%
- plant injury at 31 g/ha [2, 12]: 35%
- plant injury at 62 g/ha ([2]; post-emergence, Postemergence): 45%
- plant injury at 125 g/ha ([2]; post-emergence, Postemergence): 55%
- plant injury at 16 g/ha ([2]; pre-emergence, Preemergence): 15%
- plant injury at 62 g/ha ([2]; pre-emergence, Preemergence): 20%
- plant injury at 125 g/ha ([2]; pre-emergence, Preemergence): 70%
- pest or weed control at 16 g/ha ([3]; post-emergence, Postemergence): 20%
- pest or weed control at 31 g/ha ([3]; post-emergence, Postemergence): 30%
- pest or weed control at 62 g/ha ([3]; post-emergence, Postemergence): 30%
- pest or weed control at 125 g/ha ([3]; post-emergence, Postemergence): 30%
- pest or weed control at 16 g/ha ([3]; pre-emergence, Preemergence): 5%
- pest or weed control at 31 g/ha ([3]; pre-emergence, Preemergence): 100%
- pest or weed control at 62 g/ha ([3]; pre-emergence, Preemergence): 100%
- pest or weed control at 125 g/ha ([3]; pre-emergence, Preemergence): 100%
- pest or weed control at 16 g/ha ([4]; post-emergence, Postemergence): 15%
- pest or weed control at 31 g/ha ([4]; post-emergence, Postemergence): 25%
- pest or weed control at 62 g/ha ([4]; post-emergence, Postemergence): 40%
- pest or weed control at 125 g/ha ([4]; post-emergence, Postemergence): 65%
- pest or weed control at 16 g/ha ([4]; pre-emergence, Preemergence): 40%
- pest or weed control at 31 g/ha ([4]; pre-emergence, Preemergence): 75%
- pest or weed control at 62 g/ha ([4]; pre-emergence, Preemergence): 100%
- pest or weed control at 125 g/ha ([4]; pre-emergence, Preemergence): 100%
- pest or weed control at 16 g/ha ([5]; post-emergence, Postemergence): 15%
- pest or weed control at 31 g/ha ([5]; post-emergence, Postemergence): 30%
- pest or weed control at 62 g/ha ([5]; post-emergence, Postemergence): 40%
- pest or weed control at 125 g/ha ([5]; post-emergence, Postemergence): 80%
- pest or weed control at 16 g/ha ([5]; pre-emergence, Preemergence): 25%
- pest or weed control at 31 g/ha ([5]; pre-emergence, Preemergence): 30%
- pest or weed control at 62 g/ha ([5]; pre-emergence, Preemergence): 30%
- pest or weed control at 125 g/ha ([5]; pre-emergence, Preemergence): 85%
- pest or weed control at 16 g/ha ([6]; post-emergence, Postemergence): 5%
- pest or weed control at 31 g/ha [6, 12]: 10%
- pest or weed control at 62 g/ha ([6]; post-emergence, Postemergence): 20%
- pest or weed control at 125 g/ha ([6]; post-emergence, Postemergence): 60%
- pest or weed control at 16 g/ha ([6]; pre-emergence, Preemergence): 10%
- pest or weed control at 62 g/ha ([6]; pre-emergence, Preemergence): 75%
- pest or weed control at 125 g/ha ([6]; pre-emergence, Preemergence): 98%
- pest or weed control at 16 g/ha ([7]; post-emergence, Postemergence): 100%
- pest or weed control at 31 g/ha ([7]; post-emergence, Postemergence): 100%
- pest or weed control at 62 g/ha ([7]; post-emergence, Postemergence): 100%
- pest or weed control at 125 g/ha ([7]; post-emergence, Postemergence): 100%
- pest or weed control at 16 g/ha ([7]; pre-emergence, Preemergence): 100%
- pest or weed control at 31 g/ha ([7]; pre-emergence, Preemergence): 100%
- pest or weed control at 62 g/ha ([7]; pre-emergence, Preemergence): 85%
- pest or weed control at 125 g/ha ([7]; pre-emergence, Preemergence): 100%
- pest or weed control at 16 g/ha ([8]; post-emergence, Postemergence): 25%
- pest or weed control at 31 g/ha ([8]; post-emergence, Postemergence): 35%
- pest or weed control at 62 g/ha ([8]; post-emergence, Postemergence): 55%
- pest or weed control at 125 g/ha ([8]; post-emergence, Postemergence): 55%
- pest or weed control at 16 g/ha ([8]; pre-emergence, Preemergence): 10%
- pest or weed control at 31 g/ha ([8]; pre-emergence, Preemergence): 20%
- pest or weed control at 62 g/ha ([8]; pre-emergence, Preemergence): 35%
- pest or weed control at 125 g/ha ([8]; pre-emergence, Preemergence): 60%
- plant injury at 16 g/ha ([9]; post-emergence, Postemergence): 70%
- plant injury at 31 g/ha ([9]; post-emergence, Postemergence): 100%
- plant injury at 62 g/ha ([9]; post-emergence, Postemergence): 100%
- plant injury at 125 g/ha ([9]; post-emergence, Postemergence): 100%
- plant injury at 16 g/ha ([9]; pre-emergence, Preemergence): 50%
- plant injury at 31 g/ha ([9]; pre-emergence, Preemergence): 100%
- plant injury at 62 g/ha ([9]; pre-emergence, Preemergence): 100%
- plant injury at 125 g/ha ([9]; pre-emergence, Preemergence): 100%
- pest or weed control at 16 g/ha ([10]; post-emergence, Postemergence): 100%
- pest or weed control at 31 g/ha ([10]; post-emergence, Postemergence): 100%
- pest or weed control at 62 g/ha ([10]; post-emergence, Postemergence): 100%
- pest or weed control at 125 g/ha ([10]; post-emergence, Postemergence): 100%
- pest or weed control at 16 g/ha ([10]; pre-emergence, Preemergence): 100%
- pest or weed control at 31 g/ha ([10]; pre-emergence, Preemergence): 100%
- pest or weed control at 62 g/ha ([10]; pre-emergence, Preemergence): 100%
- pest or weed control at 125 g/ha ([10]; pre-emergence, Preemergence): 100%
- pest or weed control at 16 g/ha ([11]; post-emergence, Postemergence): 100%
- pest or weed control at 31 g/ha ([11]; post-emergence, Postemergence): 100%
- pest or weed control at 62 g/ha ([11]; post-emergence, Postemergence): 100%
- pest or weed control at 125 g/ha ([11]; post-emergence, Postemergence): 100%
- pest or weed control at 16 g/ha ([11]; pre-emergence, Preemergence): 0%
- pest or weed control at 31 g/ha ([11]; pre-emergence, Preemergence): 100%
- pest or weed control at 62 g/ha ([11]; pre-emergence, Preemergence): 100%
- pest or weed control at 125 g/ha ([11]; pre-emergence, Preemergence): 100%
